Patent US20230364032A1, “USE OF 2-HOBA TO TREAT ATHEROSCLEROSIS” (Vanderbilt University, priority 2020, published 2023)
Entries after “also recorded” stand apart in the source; their conditions may differ.

Experiments:
F2-IsoP = assay: Urine F2-isoprostane levels (LC/MS/MS); assay type: in vivo, mouse; conditions: Ldlr−/− mice, western diet 16 weeks, 1 g/L; vehicle, 4-HOBA, 2-HOBA compared
Experimental: The urine F2-IsoP levels were measured by LC/MS/MS) from Ldlr^−/− mice consuming a western diet for 16 weeks and treated with 1 g/L 2-HOBA, 4-HOBA, or vehicle. N=5 or 6 per group, p=0.43, Kruskal-Wallis test. Urinary creatinine levels were measured for normalization.

MDA = assay: HOBA-MDA adducts in macrophages incubated with ox-LDL (LC-MS/MS); assay type: cell-based, mouse; conditions: 24 h; for HOBA-MDA (propenal-HOBA) adducts in macrophages: macrophages treated with oxidized LDL, 2-HOBA versus 4-HOBA
Experimental: Peritoneal macrophages were isolated from C57BL/6J mice and incubated with 50 μg/mL ox-LDL, and treated with either 250 μm 2-HOBA or 4-HOBA (18A), or 5 μm of 2-HOBA or 4-HOBA (18B, 18C, 18D) for 24 h. Cell samples were collected and the HOBA-MDA adducts were measured using LC-MS/MS as described in supplemental methods. * p<0.05, One-way ANOVA with Bonferroni's post hoc test.
The scavenger-MDA adducts were extracted, (1) from homogenate of tissue (equivalent of 30 mg) or (2) from cells (1 ml), three times with 500 μl of ethyl acetate. The extract was dried down, resuspended in 100 μl of ACN-water (1:1, v/v with 0.1% formic acid), vortexed, and filtered through a 0.22 μm spin X column. The reactions were analyzed by LC-EST/MS/MS using the column a Phenomenex Kinetex column at a flow rate of 0.1 ml/min. The gradient consisted of Solvent A, water with 0.2% formic acid and solvent B, acetonitrile with 0.2% formic acid. The gradient was as follows: 0-2 min 99.9% A, 2-9 min 99.9-0.1% A, 9-12 min 99.9% B. The mass spectrometer was operated in the positive ion mode, and the spray voltage was maintained at 5,000 V. Nitrogen was used for the sheath gas and auxiliary gas at pressures of 30 and 5 arbitrary units, respectively. The optimized skimmer offset was set at 10, capillary temperature was 300° C., and the tube lens voltage was specific for each compound. SRM of specific transition ions for the precursor ions at m/z 178→107 (propenal-HOBA adduct).

MDA-apoAI = assay: Plasma MDA-apoAI by immunoprecipitation and western blotting; assay type: in vivo, mouse
Experimental: FIGS. 7A-7G show the effects of 2-HOBA on MDA-HDL adducts and HDL function. (7A) The levels or MDA adducts were measured by ELISA in HDL isolated from Ldlr mice treated as described in FIG. 1. Data are presented as mean±SEM (N=8 pet group), *** p<0.001, One-way ANOVA with Bonferroni's post hoc test. (7B) Western blots of apoAl and MDA-apoAl in HDL isolated from plasma by immunoprecipitation using primary anti-apoAl antibody. Ldlf mice were treated as described In FIG. 1 and apoAl and MDA-apoAl from Ldlr mice consuming a chow diet are included f0t comparison. (7C) Quantitation using lmageJ software of the mean density ratio (arbitrary units) of MDA-apoAl to apoAl detected by Western blotting (7B). […]
The study was approved by the Vanderbilt University Institutional Review Board (IRB), and all participants gave their written informed consent. […] After stopping the reaction, the O.D. was measured at 450 nm wavelength. MDA-ApoAI was detected in mouse plasma by immunoprecipitation of ApoAI and western blotting. […] Proteins were visualized and quantitated by Odyssey 3.0 Quantification software (LI-COR).

In the case of NCc1ccccc1O [2-HOBA, 2-hydroxybenzylamine], the “urine F2-IsoP levels” value (F2-IsoP) is reported as “not significantly different; also recorded: does not impact”, the “propenal-2-HOBA, DHP-MDA-2-HOBA and crosslinked MDA-2-HOBA adducts in cells” value (MDA; cells incubated with 5 μM, ox-LDL) is reported as “significant levels of propenal-2-HOBA were formed” and the “HOBA-MDA (propenal-HOBA) adducts in macrophages” value (MDA) is reported as “increased; also recorded: readily detected; also recorded: formation of 2-HOBA-MDA adducts”. For the same compound, the “plasma MDA-apoAI adducts” value (MDA-apoAI; Ldlr−/− mice consuming a western diet) was “inhibited; also recorded: dramatically reduced”.
With NCc1ccc(O)cc1 [4-HOBA, 4-hydroxybenzylamine, reference compound] the “urine F2-IsoP levels” value (F2-IsoP) was “not different”, the “HOBA-MDA (propenal-HOBA) adducts in macrophages” value (MDA) was “undetectable” and the “plasma levels of MDA-apoAI compared to Ldlr−/− mice consuming a chow diet” value (MDA-apoAI; after 16 weeks on the western-type diet) was “markedly increased”.
